According to patent US9387231B2, “Compositions comprising a Brd4 antagonist and methods for the treatment of HIV” (THE CHILDREN'S HOSPITAL OF PHILADELPHIA, priority 2011, dated 2016):

How the values were obtained:
Assay type in all cases: cell-based
[1] = test system: HIV (NL43, SG3, BAL1 or BL2); assay: HIV infection of primary activated CD4 T-cells (p24 by flow cytometry or ELISA)
Description: Primary CD4 T-cells were activated with anti-CD3/28, infected with NL43, SG3, BAL1, or BL2 (FIG. 1A) or NL43 (FIGS. 1B and 1C), and cultured in the presence of the BET antagonist JQ1(+) or the control enantiomer JQ1(−). FIG. 1A provides the expression of p24Gag in cells as determined by flow cytometry. FIGS. 1B and 1C show viral production as measured in culture supernatants by ELISA.
Primary CD4 T-cells were activated with anti-CD3/28, then infected with HIV, NL43 or SG3, and cultured in the presence of JQ1(+) (1 μM or 0.1 μM) or media. At days 3, 6, 10 and 13 after infection, cell death was measured by percent of FSC/SSC (forward scatter/side scatter) as indicated in individual plots (FIGS. 8A and 8C). The expression of p24 in live cells was examined by flow cytometry and is shown as the percentage of p24+ cells (FIGS. 8B and 8D).
BET antagonists inhibit viral infection in primary activated CD4 T-cells. Specifically, the effect of the BET antagonist JQ1(+) on viral replication was tested in HIV-infected T-cells. Primary activated CD4 T-cells were infected with X4-tropic virus (NL43 or SG3) or R5-tropic virus (BAL1 or BL2) in the presence or absence of JQ1(+) (1 μM). Viral infection was measured by flow cytometry or ELISA at various days after infection.
Of note, mean fluorescence of p24 was unchanged in the presence of the active inhibitor, indicating there was not a non-specific toxic drug effect and supporting the observation that BET antagonism inhibits HIV production at late time points of infection in primary activated CD4 T-cells.

[2] = test system: HIV-1 LTR promoter; assay: Activation of the HIV LTR in CEMss LTR-GFP reporter cells (GFP by flow cytometry)
Procedure: CEMss LTR-GFP cells were infected with NL43 and cultured in the presence of the BET antagonists JQ1(+) (1 μM) or the control enantiomer JQ1(−). GFP expression in cells was examined by flow cytometry. A representative of three experiments is shown. FIG. 2B provides a graph showing GFP expression in cells when cultured with different amounts of JQ1, as determined by flow cytometry. 0.25 μM of JQ1(+) was sufficient to dramatically increase the expression of GFP in NL43 infected CEMss LTR-GFP cells. FIGS. 2C and 2D show percentage of GFP expression (FIG. 2C) and mean fluorescence of GFP (MFI; FIG. 2D) in CEMss LTR-GFP cells cultured in the presence of JQ1(+) or JQ1(−) (1 μM), and different amount of HIV-1 Tat. FIG. 2E provides dot plots of CEMss LTR-GFP cells were cultured with increasing amounts of HIV Tat (0, 8, 16 or 32 μg/ml) in the presence of JQ1(+) or JQ1(−) (1 μM) for 1 day. Non-underlined numbers indicate percentage of GFP and underlined numbers indicate mean fluorescence of GFP (MFI).
GFP expression was measured by flow cytometry. FIGS. 3B and 3C shown the percentage of cells positive for GFP (FIG. 3B) and the mean MFI of GFP (FIG. 3C) in latently infected cell lines, J-Lat clones 82, A72, A7, A2, and A1, at 16 hours after TNFα or PHA was added in the cultures in the presence of JQ1(+) or JQ1(−). […] GFP expression in cells was measured by flow cytometry and is indicated as percent of GFP+ cells in gated live cell populations. An average of 5 experiments is shown. * p<0.05, ** p<0.01, *** p<0.001. […] Average of 3 experiments is shown. * p<0.05. For FIG. 3F, J-Lat A2 and A72 cells were reactivated with TNFα (20 ng/ml) or HIV Tat protein (50 μg/ml) in the presence of JQ1(+) or JQ1(−) for 16-18 hours, and GFP expression in cells was measured by flow cytometry. One representative experiment is shown. In each dot plot, non-underlined numbers indicate percentage of GFP+ cells and underlined numbers indicate mean fluorescence of GFP (MFI).
BET antagonists also drive activation of the HIV LTR. Specifically, the effects of JQ1 on transcription from the HIV LTR were tested. CEMss LTR-GFP cells (a reporter cell line stably transfected with GFP under the control of the HIV-1 LTR promoter) were infected with NL43 and cultured in the presence of BET antagonists or controls. GFP expression was measured at days 0, 1, 2, 3, and 6 post-infection. GFP expression was higher in the presence of the BET inhibitor (JQ1) compared to controls (FIG. 2A). Further, by varying the amount of JQ1, it was determined that 0.25 μM of JQ1(+) was sufficient to dramatically increase Tat-driven HIV-1 transcription (FIG. 2B). CEMss LTR-GFP cells were also cultured in the presence of JQ1(+) or JQ1(−) (1 μM) and different amount of HIV-1 Tat (0-32 μg/ml). […] FIG. 2E provides dot plots of the experiments.
Next, the effect of JQ1 on activation of the HIV LTR was tested using a latently infected Jurkat-derived cell clone, J-Lat clone A2. GFP expression in J-Lat clone A2 is induced upon reactivation with tumor necrosis factor-alpha (TNFα) or phytohaemagglutinin (PHA).

[3] = test system: HIV (NL43, SG3); assay: Viral production and p24Gag expression in HIV-infected CEMss LTR-GFP cells

## Cc1sc2c(c1C)C(c1ccc(Cl)cc1)=N[C@@H](CC(=O)OC(C)(C)C)c1nnc(C)n1-2 [JQ1(+), tert-butyl 2-((6S)-4-(4-chlorophenyl)-2,3,9-trimethyl-6H-thieno[3,2-f][1,2,4]triazolo[4,3-a][1,4]diazepin-6-yl)acetate]
[1]; primary CD4 T-cells, NL43, 0.1 μM
  Viral infection at low concentration: inhibition of viral infection was also observed
[1]; primary CD4 T-cells, NL43, days 3 and 6 after infection, p<0.05
  HIV infection (viral production, ELISA): significantly inhibited
[1]; primary activated CD4 T-cells, NL43 or SG3, 0.1 μM
  Relative number of virus-expressing cells (percentage of p24+ cells): still suppressed
[1]; primary activated CD4 T-cells, X4-tropic (NL43, SG3) or R5-tropic (BAL1, BL2) virus, 1 μM, flow cytometry or ELISA, various days
  Levels of infection: decrease
[1]; primary activated CD4 T-cells, in the presence of the active inhibitor
  Mean fluorescence of p24: unchanged
[2]; CEMss LTR-GFP cells infected with NL43, 1 μM, compared to controls, days 0-6
  GFP expression: higher
[2]; CEMss LTR-GFP cells, 20 ng/ml TNFα, 1 μM, 1 day, absence of Tat
  TNFα-induced activation of the HIV LTR: promotes
[2]; CEMss LTR-GFP cells, 1 μM, with 8, 16 or 32 μg/ml HIV-1 Tat
  Mean fluorescence intensities (MFI) of GFP: dramatically enhanced
[2]; NL43 infected CEMss LTR-GFP cells
  Amount sufficient to dramatically increase Tat-driven HIV-1 transcription (GFP expression): 0.25 µM
[3]; CEMss LTR-GFP cells infected with SG3, day 5 post-infection, flow cytometry
  Relative number of Gag-expressing live GFP+ cells: significantly decreased
[3]; CEMss LTR-GFP cells, HIV NL4-3, 0.25 μM, day 6 after infection, ELISA
  Production of p24 in supernatants: decreased below control values
[3]; CEMss LTR-GFP cells, NL43, 1 μM, day 3 after infection
  Expression of p24Gag in the infected cells (ratio of p24+ in GFP+ population): decreased
[3]; CEMss LTR-GFP cells, NL43, 1 μM, day 6 after infection
  Viral production (p24Gag in supernatants, ELISA): decreased
